In US6355799B1, “Substituted benzene compounds, process for their preparation, and herbicidal and defoliant compositions containing them” (ISK Americas Incorporated, priority 1997, dated 2002):

Legend:
Type in all cases: in vivo
[1] = test system: sicklepod (Cassia obtusifolia, CASOB); test: Pre-emerge test, greenhouse herbicide activity screening
Procedure, shortened: (§1)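 Compounds in acetone were track-sprayed at 15-1000 g ai/ha (187 l/ha) on sandy loam pots: pre-emerge one day after seeding, post-emerge at 2-3 leaf stage with 0.25% v/v non-ionic surfactant. Phytotoxicity was rated 14 days later on a 0 (no damage) to 100 (complete death) scale.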

[2] = test system: ivyleaf morningglory (Ipomoea hederacea, IPOHE); test: as above
Procedure, shortened: as §1

[3] = test system: green foxtail (Setaria viridis, SETVI); test: as above
Procedure, shortened: as §1

[4] = test system: large crabgrass (Digitaria sanguinalis, DIGSA); test: as above
Procedure, shortened: as §1

[5] = test system: barnyardgrass (Echinochloa crus-galli, ECHCG); test: as above
Procedure, shortened: as §1

[6] = test system: lambsquarters (Chenopodium album, CHEAL); test: as above
Procedure, shortened: as §1

[7] = test system: velvetleaf (Abutilon theophrasti, ABUTH); test: as above
Procedure, shortened: as §1

[8] = test system: upland rice (Oryza sp., var. Tebonnet, RICE); test: Post-emerge test, crop safety; conditions: post-emerge; for phytotoxicity rating RICE (crop damage): 14 days after application, rating scale 0-100; for Post-emerge Herbicidal Activity RICE: crop damage rating 0-100 at 14 days after application
Procedure, shortened: as §1

[9] = test system: field corn (Zea mays L., var. Dekalb 535, CORN); test: Post-emerge test, crop safety; conditions: post-emerge; for phytotoxicity rating CORN (crop damage): 14 days after application, rating scale 0-100; for Post-emerge Herbicidal Activity CORN: crop damage rating 0-100 at 14 days after application
Procedure, shortened: as §1

[10] = test system: upland rice (Oryza sp., var. Tebonnet, RICE); test: Pre-emerge test, crop safety
Procedure, shortened: (§2)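 Compounds in acetone were track-sprayed at 187 l/ha, 15–1000 g ai/ha, onto sandy loam pots. Pre-emerge seeds were sown one day before spraying, with surface watering afterwards. Post-emerge plants were at the 2–3 leaf stage and sprayed with 0.25% v/v non-ionic surfactant. Injury was rated 0–100 at 14 days.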

[11] = test system: field corn (Zea mays L., var. Dekalb 535, CORN); test: Pre-emerge test, crop safety
Procedure, shortened: as §2

[12] = test system: redroot pigweed (Amaranthus retroflexus, AMARE); test: Pre-emerge test, greenhouse herbicide activity screening
Procedure, shortened: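 Herbicidal damage is scored 0 (none) to 100 (complete plant death) two weeks after a simulated field spray. Rates span 15–1000 g ai/ha, delivered in acetone at 187 l/ha. For post-emergence treatments, plants have 2–3 leaves and the spray carries 0.25% v/v non-ionic surfactant.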

[13] = test system: johnsongrass (Sorghum halepense, SORHA); test: Post-emerge test, greenhouse herbicide activity screening; conditions: post-emerge; for phytotoxicity rating SORHA: 14 days after application, rating scale 0-100; for Post-emerge Herbicidal Activity SORHA: phytotoxicity rating 0-100 at 14 days after application
Procedure, shortened: (§3)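 Fourteen days after spraying, crop and weed injury was graded visually from 0, no effect, to 100, every plant dead. Test substances were dissolved in acetone and applied at 15–1000 g ai/ha with a flat-fan nozzle. Application was either pre-emergence, one day after sowing, or post-emergence at the 2–3 leaf stage.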

[14] = test system: sicklepod (Cassia obtusifolia, CASOB); test: as above; conditions: post-emerge; for phytotoxicity rating CASOB: 14 days after application, rating scale 0-100; for Post-emerge Herbicidal Activity CASOB: phytotoxicity rating 0-100 at 14 days after application
Procedure, shortened: as §3

[15] = test system: ivyleaf morningglory (Ipomoea hederacea, IPOHE); test: as above; conditions: post-emerge; for phytotoxicity rating IPOHE: 14 days after application, rating scale 0-100; for Post-emerge Herbicidal Activity IPOHE: phytotoxicity rating 0-100 at 14 days after application
Procedure, shortened: as §3

[16] = test system: green foxtail (Setaria viridis, SETVI); test: as above; conditions: post-emerge; for phytotoxicity rating SETVI: 14 days after application, rating scale 0-100; for Post-emerge Herbicidal Activity SETVI: phytotoxicity rating 0-100 at 14 days after application
Procedure, shortened: as §3

[17] = test system: large crabgrass (Digitaria sanguinalis, DIGSA); test: as above; conditions: post-emerge; for phytotoxicity rating DIGSA: 14 days after application, rating scale 0-100; for Post-emerge Herbicidal Activity DIGSA: phytotoxicity rating 0-100 at 14 days after application
Procedure, shortened: as §3

[18] = test system: redroot pigweed (Amaranthus retroflexus, AMARE); test: as above; conditions: post-emerge; for phytotoxicity rating AMARE: 14 days after application; for Post-emerge Herbicidal Activity AMARE: phytotoxicity rating 0-100 at 14 days after application
Procedure, shortened: as §3

[19] = test system: barnyardgrass (Echinochloa crus-galli, ECHCG); test: as above; conditions: post-emerge; for phytotoxicity rating ECHCG: 14 days after application, rating scale 0-100; for Post-emerge Herbicidal Activity ECHCG: phytotoxicity rating 0-100 at 14 days after application
Procedure, shortened: as §3

[20] = test system: lambsquarters (Chenopodium album, CHEAL); test: as above; conditions: post-emerge; for phytotoxicity rating CHEAL: 14 days after application, rating scale 0-100; for Post-emerge Herbicidal Activity CHEAL: phytotoxicity rating 0-100 at 14 days after application
Procedure, shortened: as §3

[21] = test system: velvetleaf (Abutilon theophrasti, ABUTH); test: as above; conditions: post-emerge; for phytotoxicity rating ABUTH: 14 days after application, rating scale 0-100; for Post-emerge Herbicidal Activity ABUTH: phytotoxicity rating 0-100 at 14 days after application
Procedure, shortened: as §3

[22] = 63 g ai/ha, phytotoxicity rating 0-100, 14 days after application
[23] = 250 g ai/ha, phytotoxicity rating 0-100, 14 days after application
[24] = 63 g ai/ha, crop damage rating 0-100, 14 days after application
[25] = 250 g ai/ha, crop damage rating 0-100, 14 days after application
[26] = pre-emerge, rate 63 g ai/ha, phytotoxicity rating 0-100 at 14 days after application
[27] = pre-emerge, rate 250 g ai/ha, phytotoxicity rating 0-100 at 14 days after application
[28] = crop damage, pre-emerge, rate 63 g ai/ha, phytotoxicity rating 0-100 at 14 days after application
[29] = crop damage, pre-emerge, rate 250 g ai/ha, phytotoxicity rating 0-100 at 14 days after application

COc1c(Cl)cc(F)c(-n2c(=O)cc(C(F)(F)F)n(C)c2=O)c1NC(=O)OCc1cc(C)cc(C)c1 [4-37]
40: Pre-emerge Herbicidal Activity CASOB [1, 23] | phytotoxicity rating SORHA ([13]; 63 g ai/ha)
30: Pre-emerge Herbicidal Activity CASOB [1, 22] | Pre-emerge Herbicidal Activity IPOHE [2, 22] | Pre-emerge Herbicidal Activity RICE [10, 25]
50: Pre-emerge Herbicidal Activity IPOHE [2, 23] | phytotoxicity rating DIGSA ([17]; 63 g ai/ha)
20: phytotoxicity rating CORN (crop damage) ([9]; 63 g ai/ha) | phytotoxicity rating ECHCG ([19]; 63 g ai/ha)
60: Pre-emerge Herbicidal Activity DIGSA [4, 22] | Pre-emerge Herbicidal Activity ECHCG [5, 23] | phytotoxicity rating RICE (crop damage) ([8]; 250 g ai/ha) | phytotoxicity rating CORN (crop damage) ([9]; 250 g ai/ha) | phytotoxicity rating SORHA ([13]; 250 g ai/ha) | phytotoxicity rating ECHCG ([19]; 250 g ai/ha)
90: Pre-emerge Herbicidal Activity SETVI [3, 22] | Pre-emerge Herbicidal Activity DIGSA [4, 23] | Pre-emerge Herbicidal Activity ABUTH [7, 23] | phytotoxicity rating CASOB ([14]; 63 g ai/ha) | phytotoxicity rating SETVI ([16]; 63 g ai/ha) | phytotoxicity rating SETVI ([16]; 250 g ai/ha)
0: Pre-emerge Herbicidal Activity CORN [11, 24] | Pre-emerge Herbicidal Activity CORN [11, 25]
10: Pre-emerge Herbicidal Activity ECHCG [5, 22] | phytotoxicity rating RICE (crop damage) ([8]; 63 g ai/ha) | Pre-emerge Herbicidal Activity RICE [10, 24]
100: Pre-emerge Herbicidal Activity SETVI [3, 23] | Pre-emerge Herbicidal Activity CHEAL [6, 22] | Pre-emerge Herbicidal Activity CHEAL [6, 23] | Pre-emerge Herbicidal Activity ABUTH [7, 22] | Pre-emerge Herbicidal Activity AMARE [12, 22] | Pre-emerge Herbicidal Activity AMARE [12, 23] | phytotoxicity rating CASOB ([14]; 250 g ai/ha) | phytotoxicity rating IPOHE ([15]; 63 g ai/ha) | phytotoxicity rating IPOHE ([15]; 250 g ai/ha) | phytotoxicity rating AMARE ([18]; 63 g ai/ha, rating scale 0-100 (0 no damage, 100 complete death)) | phytotoxicity rating AMARE ([18]; 250 g ai/ha, rating scale 0-100) | phytotoxicity rating CHEAL ([20]; 63 g ai/ha) | phytotoxicity rating CHEAL ([20]; 250 g ai/ha) | phytotoxicity rating ABUTH ([21]; 63 g ai/ha) | phytotoxicity rating ABUTH ([21]; 250 g ai/ha)
70: phytotoxicity rating DIGSA ([17]; 250 g ai/ha)

COc1c(Cl)cc(F)c(-n2nc(C)n(C(F)F)c2=O)c1NC(=O)c1ccc(F)cc1F [Compound 6-14]
80: Post-emerge Herbicidal Activity AMARE ([18]; 63 g ai/ha)
90: Post-emerge Herbicidal Activity RICE ([8]; 250 g ai/ha) | Pre-emerge Herbicidal Activity RICE [10, 28] | Pre-emerge Herbicidal Activity CORN [11, 28] | Pre-emerge Herbicidal Activity AMARE [12, 26] | Post-emerge Herbicidal Activity SORHA ([13]; 250 g ai/ha) | Post-emerge Herbicidal Activity CASOB ([14]; 250 g ai/ha) | Post-emerge Herbicidal Activity SETVI ([16]; 63 g ai/ha) | Post-emerge Herbicidal Activity DIGSA ([17]; 250 g ai/ha) | Post-emerge Herbicidal Activity ECHCG ([19]; 250 g ai/ha)
30: Post-emerge Herbicidal Activity SORHA ([13]; 63 g ai/ha)
40: Pre-emerge Herbicidal Activity CASOB [1, 26]
20: Post-emerge Herbicidal Activity ECHCG ([19]; 63 g ai/ha)
60: Pre-emerge Herbicidal Activity CASOB [1, 27] | Pre-emerge Herbicidal Activity IPOHE [2, 26] | Post-emerge Herbicidal Activity RICE ([8]; 63 g ai/ha) | Post-emerge Herbicidal Activity CORN ([9]; 63 g ai/ha) | Post-emerge Herbicidal Activity CASOB ([14]; 63 g ai/ha) | Post-emerge Herbicidal Activity DIGSA ([17]; 63 g ai/ha)
100: Pre-emerge Herbicidal Activity IPOHE [2, 27] | Pre-emerge Herbicidal Activity SETVI [3, 26] | Pre-emerge Herbicidal Activity SETVI [3, 27] | Pre-emerge Herbicidal Activity DIGSA [4, 26] | Pre-emerge Herbicidal Activity DIGSA [4, 27] | Pre-emerge Herbicidal Activity ECHCG [5, 26] | Pre-emerge Herbicidal Activity ECHCG [5, 27] | Pre-emerge Herbicidal Activity CHEAL [6, 26] | Pre-emerge Herbicidal Activity CHEAL [6, 27] | Pre-emerge Herbicidal Activity ABUTH [7, 26] | Pre-emerge Herbicidal Activity ABUTH [7, 27] | Post-emerge Herbicidal Activity CORN ([9]; 250 g ai/ha) | Pre-emerge Herbicidal Activity RICE [10, 29] | Pre-emerge Herbicidal Activity CORN [11, 29] | Pre-emerge Herbicidal Activity AMARE [12, 27] | Post-emerge Herbicidal Activity IPOHE ([15]; 63 g ai/ha) | Post-emerge Herbicidal Activity IPOHE ([15]; 250 g ai/ha) | Post-emerge Herbicidal Activity SETVI ([16]; 250 g ai/ha) | Post-emerge Herbicidal Activity AMARE ([18]; 250 g ai/ha) | Post-emerge Herbicidal Activity CHEAL ([20]; 63 g ai/ha) | Post-emerge Herbicidal Activity CHEAL ([20]; 250 g ai/ha) | Post-emerge Herbicidal Activity ABUTH ([21]; 63 g ai/ha) | Post-emerge Herbicidal Activity ABUTH ([21]; 250 g ai/ha)
